Results: patent US8124807B2, “Sulfonyl-substituted 6-membered ring derivative” (MSD K.K., priority 2007, dated 2012)

biological target: T1, human LCE (Homo sapiens, UniProt Q9H5J4); experiment: LCE enzyme activity-inhibitory test; type: biochemical; settings: palmitoyl CoA and [14C]-malonyl CoA substrates, pH 6.5, 37° C., 90 minutes
T1 sequence (Q9H5J4 1-265): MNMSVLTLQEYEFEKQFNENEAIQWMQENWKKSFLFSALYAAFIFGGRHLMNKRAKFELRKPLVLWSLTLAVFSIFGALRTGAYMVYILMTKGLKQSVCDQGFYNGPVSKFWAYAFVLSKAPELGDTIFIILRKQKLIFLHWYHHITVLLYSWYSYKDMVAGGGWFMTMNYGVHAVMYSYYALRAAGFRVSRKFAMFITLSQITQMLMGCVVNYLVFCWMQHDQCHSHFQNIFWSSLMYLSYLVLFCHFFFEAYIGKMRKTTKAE
Experimental: A test compound was dissolved in dimethyl sulfoxide (DMSO to be 10 mM), and then diluted with DMSO to prepare a 1000-fold concentrated solution of the test concentration. An improved Moon et al's method (J. Biol. Chem., Vol. 276, pp. 45358-45366, 2001) was employed for the LCE enzyme activity-inhibitor test. Concretely, the diluted compound was applied to a 96-well assay plate (Corning, 96-well assay block) in an amount of 1.0 μL/well; 50 μL of a phosphate buffer solution (100 mM potassium phosphate buffer, pH 6.5), and 25 μL of a substrate solution (100 mM potassium phosphate buffer (pH 6.5), 4.0 μM rotenone, 80 μM fatty acid-free bovine serum albumin, 160 μM palmitoyl CoA, 80 μM malonyl CoA, 3.5 μM [^14C]-malonyl CoA (1.92 GBq/mmol, by Amersham)) were added to each well; 25 μL of an enzyme solution (100 mM potassium phosphate buffer (pH 6.5), 100 μg/mL human LCE) was added thereto; the top of the plate was airtightly sealed up; and this was incubated with gently shaking and stirring at 37° C. for 90 minutes. Next, 100 μL of 5 N hydrochloric acid was added to each well, and the assay plate was stirred at room temperature for 5 minutes to stop the enzyme reaction with hydrolyzing the acyl CoA. Next, the enzyme reaction solution in each well was adsorbed by each well of a 96-well GF/C filter plate (Perkin Elmer Unifilter 96 GF/C); the individual wells were washed with water to remove the non-adsorbed malonyl CoA; and the GF/C filter plate was dried at 50° C. for 60 minutes. Next, 30 μL of a scintillator (Perkin Elmer Microscinti 0) was added to each well; then the top of the plate was sealed up; and the fixed [^14C] radioactivity was measured with a microplate scintillation counter (Perkin Elmer TopCount) to be the enzyme activity. The human LCE enzyme-inhibitory activity of the test compound was calculated, based on the radioactivity of the DMSO-added well with no test compound therein as a control.

Structure (SMILES) | IC50 [µM]
CC(C)Oc1ccc(NC(=O)[C@@H]2CCC[C@@H](S(=O)(=O)c3ccncc3)C2)nc1 (racemic) [Example 9, (1R*,3R*)-N-(5-isopropoxypyridin-2-yl)-3-(pyridin-4-ylsulfonyl)cyclohexanecarboxamide] | 0.131
CC(C)Oc1ccc(NC(=O)[C@@H]2CCC[C@@H](S(=O)(=O)c3ncccn3)C2)nc1 (racemic) [Example 10, (1R*,3R*)-N-(5-isopropoxypyridin-2-yl)-3-(pyrimidin-2-ylsulfonyl)cyclohexanecarboxamide] | 0.026
CC(C)Oc1ccc(NC(=O)[C@@H]2CCC[C@@H](S(=O)(=O)c3nccs3)C2)nc1 (racemic) [Example 11, (1R*,3R*)-N-(5-isopropoxypyridin-2-yl)-3-(1,3-thiazol-2-ylsulfonyl)cyclohexanecarboxamide] | 0.032
CC(C)Oc1ccc(NC(=O)[C@@H]2CCC[C@@H](S(=O)(=O)c3cnccn3)C2)nc1 (racemic) [Example 13, (1R*,3R*)-N-(5-isopropoxypyridin-2-yl)-3-(pyrazin-2-ylsulfonyl)cyclohexanecarboxamide] | 0.13

Next, values leading:

IC50 [µM] | Structure (SMILES)
0.233 | CC(C)Oc1ccc(NC(=O)[C@@H]2CCC[C@@H](S(=O)(=O)c3ccccn3)C2)cc1 (racemic) [Example 2, (1R*,3R*)-N-(4-isopropoxyphenyl)-3-(pyridin-2-ylsulfonyl)cyclohexanecarboxamide]
0.03 | CC(C)Oc1ccc(NC(=O)[C@@H]2CCC[C@@H](S(=O)(=O)c3ccccc3)C2)nc1 (racemic) [Example 7, (1R*,3R*)-N-(5-isopropoxypyridin-2-yl)-3-(phenylsulfonyl)cyclohexanecarboxamide]
0.043 | CC(C)Oc1ccc(NC(=O)[C@@H]2CCC[C@@H](S(=O)(=O)c3ccccn3)C2)nc1 (racemic) [Example 8, (1R*,3R*)-N-(5-isopropoxypyridin-2-yl)-3-(pyridin-2-ylsulfonyl)cyclohexanecarboxamide]
